Values quoted from earlier work, collected in patent US20230095832A1, “ADHESION BARRIER COMPOSITION, METHODS OF FABRICATION AND USE THEREOF” (SPOROGENICS PTE. LTD., priority 2020, published 2023).

Tested on: intra-abdominal adhesions

For `O=C(O)c1cc(O)c(O)c(O)c1` [gallic acid], the “IL-6, TNF-α, TGF-b1 serum levels and NF-kB phosphorylation” value (further studies) is given as “significantly reduced” and the intra-abdominal adhesions (rats, compared to a control) is given as “decrease intra-abdominal adhesions”.
